Entries after “also recorded” stand apart in the source; their conditions may differ. Where a name gives a salt, the structure may show the parent alone.
Key:
HEK293 cells = assay: Cell proliferation (DNA content, DAPI) in control HEK293 cells; format: cell-based; details: PP 100 nM, HH 100 nM, BiC 1 μM
Source text: (§1) LN-AR cells were created by retroviral infection of a high-expressing AR vector into LNCaP cells, and proliferate independent of androgen in cell culture, unlike their parental line (Chen, C. D., et al., Molecular determinants of resistance to antiandrogen therapy. Nat Med, 2004. 10(1): p. 33-9). HEK293 cells were used as a control. Cells were transferred to charcoal-stripped media two days before they were split and plated in quadruplicate at a density of approximately 20,000 cells/well in 48-well plates. […] Media were changed every day, using a single preparation to ensure consistent compound concentrations. Proliferation was determined by measuring the DNA content of the cells in each well. Each day, the cells in four wells were fixed in 100% cold methanol, followed by staining for 5 min at RT with 0.2 ng/mL 4′,6-diamidino-2-phenylindole (DAPI) in PBS. The cells were washed once in PBS, then read on a fluorescence plate reader using 365/439 excitation/emission wavelengths. LAPC4 and LNCaP cells proliferated to a much greater degree in the presence of DHT, while LN-AR cells proliferated in the presence and absence of DHT.

LAPC4 cells = assay: Cell proliferation (DNA content, DAPI) in LAPC4 cells; format: cell-based, human; details: 3 nM DHT, PP 100 nM, HH 100 nM, BiC 1 μM, seven days
Source text: as §1

LNCaP cells = assay: Cell proliferation (DNA content, DAPI) in LNCaP cells; format: cell-based, human; details: 3 nM DHT, PP 100 nM, HH 100 nM, BiC 1 μM, seven days, hydrochloride
Source text: as §1

[1] = Pharmacokinetics in mice, drug levels by mass spectrometry; format: in vivo
Source text: Serum samples were obtained at fixed time intervals, and the drug levels determined by mass spectrometry.

AR = molecular target: T1, AR (Homo sapiens, UniProt P10275, T878A); assay: DHT titration against inhibitor, PSA-luciferase reporter in LNCaP cells (competitive vs non-competitive); format: cell-based; details: moderate dose of inhibitor, DHT titrated, hydrochloride
T1 construct: that each express endogenous AR; endogenous in cells; host or cells: LNCaP
T1 sequence (P10275 whole entry T878A): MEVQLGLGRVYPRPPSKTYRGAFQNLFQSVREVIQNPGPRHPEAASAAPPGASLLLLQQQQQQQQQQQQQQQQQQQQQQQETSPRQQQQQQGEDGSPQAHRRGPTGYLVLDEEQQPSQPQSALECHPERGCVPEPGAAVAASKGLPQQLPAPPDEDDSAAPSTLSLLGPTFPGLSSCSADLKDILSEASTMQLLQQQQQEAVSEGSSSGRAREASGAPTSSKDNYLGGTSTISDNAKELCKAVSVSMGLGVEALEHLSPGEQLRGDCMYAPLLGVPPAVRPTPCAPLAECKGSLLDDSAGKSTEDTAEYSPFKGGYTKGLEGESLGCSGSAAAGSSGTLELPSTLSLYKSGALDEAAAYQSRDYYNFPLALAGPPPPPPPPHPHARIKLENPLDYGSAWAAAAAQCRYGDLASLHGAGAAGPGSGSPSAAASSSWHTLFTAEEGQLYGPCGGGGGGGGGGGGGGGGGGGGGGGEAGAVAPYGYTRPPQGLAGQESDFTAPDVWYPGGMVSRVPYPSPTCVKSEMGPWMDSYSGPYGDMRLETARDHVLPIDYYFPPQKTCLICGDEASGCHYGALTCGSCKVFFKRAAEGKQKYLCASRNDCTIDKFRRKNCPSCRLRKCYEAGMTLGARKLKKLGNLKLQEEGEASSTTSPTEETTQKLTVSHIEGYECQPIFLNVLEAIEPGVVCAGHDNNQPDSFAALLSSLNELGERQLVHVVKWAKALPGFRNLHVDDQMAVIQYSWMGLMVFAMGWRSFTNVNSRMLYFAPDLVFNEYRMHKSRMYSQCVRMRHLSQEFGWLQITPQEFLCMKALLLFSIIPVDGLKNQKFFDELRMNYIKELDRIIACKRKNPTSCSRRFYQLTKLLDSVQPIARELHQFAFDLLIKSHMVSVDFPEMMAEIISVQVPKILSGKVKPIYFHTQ

Structure (SMILES): Cc1nccc2c1[nH]c1cc(O)ccc12 [HH, harmol hydrochloride]
- Non-specific growth inhibition (HEK293 cells): Neither compound exhibited non-specific growth inhibition
- Inhibition of cell growth (LAPC4 cells): not effective
- Inhibition of cell growth (LNCaP cells): inhibited significantly; also recorded: growth-inhibitory properties
- Plasma concentration ([1]; mice, single IP injection 5 mg/kg, 1 hr): 5.0 ng/mL
- Clearance / half-life (in words) ([1]; wild-type FVB mice, single intraperitoneal injection): rapidly cleared
- Mode of antagonism on DHT titration (AR): inhibited maximal DHT-induced activation; also recorded: consistent with a non-competitive antagonist

Reference: patent US8580773B2, “Small-molecule inhibitors of the androgen receptor” (The Regents of the University of California, priority 2008, dated 2013)
